Test results from patent US8580321B2, “Method for reducing the effects of chemotherapy using flagellin related polypeptides” (priority 2003, dated 2013).

B1: AB′: flagellin fragment (1-177)-Linker-(402-450), SEQ ID NO: 10 (protein)
chain: MRGSHHHHHHGMASMTGGQQMGRDLYDDDDKDPMAQVINTNSLSLLTQNNLNKSQSSLSSAIERLSSGLRINSAKDDAAGQAIANRFTSNIKGLTQASRNANDGISIAQTTEGALNEINNNLQRVRELSVQATNGTNSDSDLKSIQDEIQQRLEEIDRVSNQTQFNGVKVLSQDNQMKIQVGANDGETITIDLQKIDVKSLGLDGFNVNSPGISGGGGGILDSMGTLINEDAAAAKKSTANPLASIDSALSKVDAVRSSLGAIQNRFDSAITNL
modifications: Salmonella dublin
B2: CB′: flagellin fragment (56-100)-Linker-(402-450), SEQ ID NO: 18 (protein)
chain: MRGSHHHHHHGMASMTGGQQMGRDLYDDDDKDPFTSNIKGLTQASRNANDGISIAQTTEGALNEINNNLQRVRELSVQATSPGISGGGGGILDSMGTLINEDAAAAKKSTANPLASIDSALSKVDAVRSSLGAIQNRFDSAITNL
modifications: Salmonella dublin
B3: AB′n1-70: flagellin variant N-terminal 1-70, C-terminal 402-450, SEQ ID NO: 56 (protein)
chain: MRGSHHHHHHGMASMTGGQQMGRDLYDDDDKDPMAQVINTNSLSLLTQNNLNKSQSSLSSAIERLSSGLRINSAKDDAAGQAIANRFTSNIKGLTQASRNANDIPGISGGGGGILDSMGTLINEDAAAAKKSTANPLASIDSALSKVDAVRSSLGAIQNRFDSAITNL
modifications: Salmonella dublin
B4: A: flagellin N-terminus (1-177), SEQ ID NO: 20 (protein)
chain: MRGSHHHHHHGMASMTGGQQMGRDLYDDDDKDPMAQVINTNSLSLLTQNNLNKSQSSLSSAIERLSSGLRINSAKDDAAGQAIANRFTSNIKGLTQASRNANDGISIAQTTEGALNEINNNLQRVRELSVQATNGTNSDSDLKSIQDEIQQRLEEIDRVSNQTQFNGVKVLSQDNQMKIQVGANDGETITIDLQKIDVKSLGLDGFNVNSPG
modifications: Salmonella dublin
B5: C: flagellin N-terminus (56-100), SEQ ID NO: 24 (protein)
chain: MRGSHHHHHHGMASMTGGQQMGRDLYDDDDKDPFTSNIKGLTQASRNANDGISIAQTTEGALNEINNNLQRVRELSVQATSPG
modifications: Salmonella dublin
B6: AB′n1-170: flagellin variant N-terminal 1-170, C-terminal 402-450, SEQ ID NO: 38 (protein)
chain: MRGSHHHHHHGMASMTGGQQMGRDLYDDDDKDPMAQVINTNSLSLLTQNNLNKSQSSLSSAIERLSSGLRINSAKDDAAGQAIANRFTSNIKGLTQASRNANDGISIAQTTEGALNEINNNLQRVRELSVQATNGTNSDSDLKSIQDEIQQRLEEIDRVSNQTQFNGVKVLSQDNQMKIQVGANDGETITIDLQKIDVKSLGLIPGISGGGGGILDSMGTLINEDAAAAKKSTANPLASIDSALSKVDAVRSSLGAIQNRFDSAITNL
modifications: Salmonella dublin
B7: BB′: flagellin fragment (56-177)-Linker-(402-450), SEQ ID NO: 14 (protein)
chain: MRGSHHHHHHGMASMTGGQQMGRDLYDDDDKDPFTSNIKGLTQASRNANDGISIAQTTEGALNEINNNLQRVRELSVQATNGTNSDSDLKSIQDEIQQRLEEIDRVSNQTQFNGVKVLSQDNQMKIQVGANDGETITIDLQKIDVKSLGLDGFNVNSPGISGGGGGILDSMGTLINEDAAAAKKSTANPLASIDSALSKVDAVRSSLGAIQNRFDSAITNL
modifications: Salmonella dublin
B8: AB′n1-163: flagellin variant N-terminal 1-163, C-terminal 402-450, SEQ ID NO: 40 (protein)
chain: MRGSHHHHHHGMASMTGGQQMGRDLYDDDDKDPMAQVINTNSLSLLTQNNLNKSQSSLSSAIERLSSGLRINSAKDDAAGQAIANRFTSNIKGLTQASRNANDGISIAQTTEGALNEINNNLQRVRELSVQATNGTNSDSDLKSIQDEIQQRLEEIDRVSNQTQFNGVKVLSQDNQMKIQVGANDGETITIDLQKIIPGISGGGGGILDSMGTLINEDAAAAKKSTANPLASIDSALSKVDAVRSSLGAIQNRFDSAITNL
modifications: Salmonella dublin
B9: B: flagellin N-terminus (56-177), SEQ ID NO: 22 (protein)
chain: MRGSHHHHHHGMASMTGGQQMGRDLYDDDDKDPFTSNIKGLTQASRNANDGISIAQTTEGALNEINNNLQRVRELSVQATNGTNSDSDLKSIQDEIQQRLEEIDRVSNQTQFNGVKVLSQDNQMKIQVGANDGETITIDLQKIDVKSLGLDGFNVNSPG
modifications: Salmonella dublin

Key:
[1] = tested on: NF-κB; test: EMSA of NF-κB translocation / DNA binding in A549 cells; conditions: for NF-κB Stimulation / level of NF-κB translocation, fragments versus flagellin: A549 cells; for NF-κB Stimulation: 1 μg/ml, 45 min, EMSA of whole cell extracts; for level of NF-κB translocation, fragments versus flagellin / inducing NF-κB translocation: EMSA; for inducing NF-κB translocation: nuclear extracts of treated A549 lung cancer cells
[2] = tested on: NF-κB; test: EMSA of NF-κB binding activity in HT29 human colon cancer cells; type: cell-based; conditions: fragments 1 mg/ml, 15 min
Method: We further minimized the AA′ flagellin fragment by producing additional fragments through stepwise removal of peptide fragments from its N-terminal half (Table 2). […] NF-κB binding activity in HT29 cells was stimulated with TNFa (10 ng/ml), or flagellin fragments (1 mg/ml) for 15 min.

[3] = tested on: mice treated with total body gamma radiation; test: Mouse survival after total body gamma irradiation (radioprotection); type: in vivo; conditions: s.c. 5.0 μg/mouse (0.2 mg/kg)
Method: Whole body irradiation of mice with 15 Gy gamma radiation caused death within 8 days from GI syndrome providing a conventional model of radiation induced damage of GI tract. To test whether flagellin was capable of protecting GI epithelium from IR, we tested the effect of i.v.-injected flagellin on the dynamics of mouse lethality after 15 Gy of radiation. […] Irradiation was done 4 hours post treatment. As expected, control irradiated mice (that received PBS i.v.) died between 5 and 8 days post-treatment. […] Intravenous, intraperitoneal and subcutaneous delivery of 0.2 mg/kg of flagellin followed by 13 Gy irradiation afforded similar degree of protection, leading to 85-90% 30-day survival of mice (data not shown). While not being bound by theory, flagellin may be a radioprotectant due to its activation of NF-κB, which presumably acts as an inhibitor of apoptotic death.
The experiments were done similarly to the above-described ones (FIGS. 14 and 15), however, instead of 15Gy, mice received 10Gy, the dose that caused 100% killing in control group by day 13 (FIG. 6).
In order to further estimate the dependence of radioprotective activity of flagellin on the time of treatment, mice were injected at several time points relative to the moment of gamma-irradiation. Experiments were performed essentially as explained above, using intraperitoneal injection of 5 μg/mouse (0.2 mg/kg) of full-length flagellin or, for control mice, 5 μg/mouse (0.2 mg/kg) of bacterial RNA polymerase. The experiments were performed using the NIH-Swiss mouse strain. […] Only −1 h graph is shown for clarity, however, both timepoints (−1 and −2 h) provide similar degree and dynamics of survival.
We next obtained an estimate of radiation dose-dependent protection for flagellin. As shown above (FIG. 7), treatment with flagellin was sufficient for 100% protection against 10 Gy gamma-irradiation (this dose causes death from hematopoietic syndrome) and 90% 30-day survival at 13 Gy (both hematopoietic and GI syndromes). Experiments were performed as described above, using flagellin 5 μg/mouse (0.2 mg/kg), intraperitoneally injected 1 h before irradiation.
As shown above, full-length flagellin provides protection from both hematopoietic and gastrointestinal syndromes. The radioprotective potential of flagellin fragments was similarly tested after gamma-irradiation with 11 Gy (dose that induces hematopoietic syndrome-associated mortality in mice) or 14 Gy (dose that causes death from GI syndrome). Mice (10 animals per group) were injected subcutaneously with 5.0 μg/mouse (0.2 mg/kg) of flagellin or its fragments, AA′ or BB′, and gamma-irradiated 1 hour later.
In order to explore the limits of radioprotection provided by the AA′ fragment, we irradiated mice with 17 Gy and 20 Gy single doses of total body gamma-radiation.
We tested the ability of AA′ to protect mice that were exposed to it. A group of 20 NIH-Swiss mice were subcutaneously injected with 5 μg/mouse (0.2 mg/kg) of AA′. A second injection of a equal dose of AA′ was administered after 21 (10 mice) and 28 days (another 10 mice), with the time elapsed being sufficient for formation of antibodies. The second injection of AA′ was followed by 13 Gy of whole-body gamma irradiation (1 h post-injection).
Repetitive irradiation within a short period of time may be common, for example, in space radiation events and in clinical radiotherapy regimens. We tested the ability of the AA′ flagellin fragment to protect mice from sub-lethal (4 treatments of 3 Gy) and 100% lethal (4 treatments of 4 Gy) regimens of fractionated gamma-irradiation. Fragment AA′ or saline buffer was given to NIH-Swiss female mice before every irradiation (once a day for 4 days). AA′ was administered as described above for single-dose irradiation (5 μg/mouse, given subcutaneously 1 h before irradiation). […]
We have extensively confirmed that AA′ protects NIH-Swiss and ICR mice from radiation. […]

Molecule | NF-κB Stimulation [1] | further results
AA′n54-163: (54-163)-Linker-(402-505), SEQ ID NO: 36 | Yes | induction of NF-κB translocation [2]: induce NF-κB translocation
AA′n54-170: (54-170)-Linker-(402-505), SEQ ID NO: 32 | Yes | induction of NF-κB translocation [2]: induce NF-κB translocation; level of NF-κB translocation relative to flagellin [2]: comparable to that of flagellin
CA′: flagellin fragment (56-100)-Linker-(402-505), SEQ ID NO: 16 | No | 
AA′n1-70: flagellin variant N-terminal 1-70, C-terminal 402-505, SEQ ID NO: 54 | No | 
BA′: flagellin fragment (56-177)-Linker-(402-505), SEQ ID NO: 12 | Yes | level of NF-κB translocation, fragments versus flagellin [1]: comparable; inducing NF-κB translocation [1]: capable of inducing NF-κB translocation
AA′n54-129: flagellin variant N-terminal 54-129, C-terminal 402-505, SEQ ID NO: 44 | Yes | 
GST-A′: GST-Linker-(402-505), SEQ ID NO: 26 | No | 
AA′n1-163: (1-163)-Linker-(402-505), SEQ ID NO: 34 | Yes | induction of NF-κB translocation [2]: induce NF-κB translocation; level of NF-κB translocation relative to flagellin [2]: comparable to that of flagellin
AA′n1-129: flagellin variant N-terminal 1-129, C-terminal 402-505, SEQ ID NO: 42 | Yes | 
B1 | Yes | level of NF-κB translocation, fragments versus flagellin [1]: comparable; inducing NF-κB translocation [1]: capable of inducing NF-κB translocation
B2 | No | 
B3 | No | 
B4 | No | 
B5 | No | 
B6 | Yes | 
B7 | No | 30-day survival, 11 Gy ([3]; 1 hour before 11 Gy): 0%; 30-day survival, 14 Gy ([3]; 1 hour before 14 Gy): 0%
B8 | Yes | 
B9 | No | 
